In patent publication US20230390220A1, “MONOAMINE OXIDASE BLOCKADE THERAPY FOR TREATING CANCER THROUGH REGULATING ANTITUMOR T CELL IMMUNITY” (THE REGENTS OF THE UNIVERSITY OF CALIFORNIA, priority 2020, published 2023):

Columns and labels:
CD8 T cells = experiment: In vitro mouse CD8 T cell activation with anti-CD3 (ELISA / flow cytometry); assay type: cell-based; conditions: for CD8 T cell hyperactivation (expression of CD25, Granzyme B, IL-2, IFN-γ): B6 wildtype CD8 T cells, anti-CD3, Phe 10 μM, Moc 200 μM, Clo 20 μM; for IL-2 and IFN-γ production: Maoa-WT CD8 T cells, 4-day time course post anti-CD3, treatment 10 μM vs NT
Excerpt: The coating and biotinylated antibodies for the detection of mouse IFN-γ (coating antibody, cat #554424; biotinylated detection antibody, cat #554426) and IL-2 (coating antibody, cat #551216; biotinylated detection antibody, cat #554410) were purchased from BD Biosciences. The streptavidin-HRP conjugate (Cat #18410051) was purchased from Invitrogen. Mouse IFN-γ (Cat #575309) and IL-2 (Cat #575409) standards were purchased from BioLegend. The 3,3′,5,5′-Tetramethylbenzidine (TMB, cat #51200048) substrate was purchased from KPL.

5-HTRs on CD8 T cells = experiment: Western blot of 5-HTR (MAPK) and TCR signaling in CD8 T cells; assay type: cell-based, mouse; conditions: anti-CD3 2 days, asenapine 10 μM, restimulated 20 minutes
Procedure: CD8 T cells purified from Maoa-WT and Maoa-KO mice were cultured in vitro in a 24-well plate at 0.5×10^6 cells per well for 2 days, in the presence of plate-bound anti-mouse CD3ε (5 μg/ml), with or without asenapine treatment (10 μM). Cells were then rested on ice for 2 hours and restimulated with plate-bound anti-mouse CD3ε (5 μg/ml) for 20 minutes. Total protein was extracted using a lysis buffer containing 20 mM HEPES (pH 7.6), 150 mM NaCl, 1 mM EDTA, 1% TritonX-100, and protease/phosphatase inhibitor cocktail (Cat #5872S, Cell Signaling). Nuclear protein was extracted using a Nuclear Protein Extraction Kit (Cat #P178833, Thermo Fisher Scientific). Protein concentration was measured a BCA Assay Kit (Cat #23228 and Cat #1859078, Thermo Fisher Scientific). Equal amounts of protein were resolved on a 10% SDS-PAGE gel and then transferred to a PVDF membrane by electrophoresis. MAO-A antibody was purchased from Abcam (Cat #ab126751, Clone EPR7101). […] Signals were visualized with autoradiography using an ECL system (Cat #RPN2232, Thermo Fisher Scientific). The data were analyzed using an Image Lab software (Bio-Rad).

B16-OVA melanoma [1] = experiment: Syngeneic B16-OVA melanoma tumor model, tumor growth; assay type: in vivo, mouse; conditions: for Tumor growth, B16-OVA melanoma prevention model: i.p., phenelzine 30 mg/kg/day, moclobimide 50 mg/kg/day, clorgyline 50 mg/kg/day
Procedure: (§1) B16-OVA melanoma cells (1×10^6 per animal) or MC38 colon cancer cells (3×10^5 per animal) were subcutaneously (s.c.) injected into experimental mice to form solid tumors. In some experiments, mice received intraperitoneal (i.p.) injection of MAOIs (i.e., phenelzine, 30 mg/kg/day; moclobimide, 50 mg/kg/day; or clorgyline, 50 mg/kg/day) to block MAO-A activity. In some experiments, mice received i.p. injection of anti-mouse CD8α antibodies (200 μg/animal/bi-weekly) to deplete CD8 T cells; mice received i.p. injection of isotype antibodies were included as controls. In some experiments, mice received i.p. injection of anti-mouse PD-1 antibodies (300 μg/animal/bi-weekly) to block PD-1; mice received i.p. injection of isotype antibodies were included as controls.
(§2) During an experiment, tumor growth was monitored twice per week by measuring tumor size using a Fisherbrand™ Traceable™ digital caliper (Thermo Fisher Scientific); tumor volumes were calculated by formula ½×L×W^2. At the end of an experiment, tumor-infiltrating immune cells were isolated for analysis using QPCR, flow cytometry, and/or scRNASeq. In some experiments, sera were also collected for serotonin measurement.

B16-OVA melanoma [2] = conditions: Maoa-WT mice
Procedure: as §1, §2
HPLC was used to measure intratumoral and serum serotonin levels as previously described (47, 48). Briefly, tumors and sera were collected from experimental mice at indicated time points, and were snap-frozen using liquid nitrogen. Frozen samples were thawed and homogenized using methanol and acetonitrile by vortexing. Homogenized samples were centrifuged, and supernatants were collected to new tubes and evaporated under a stream of argon. Dried sample pellets were then reconstituted in HPLC running buffer and were ready for analysis. Serotonin concentration was quantified using a C 18 column by reverse phase HPLC (System Gold 166P detector, Beckman Coulter)

MC38 colon cancer = system: MC38 colon cancer
Procedure: as §1, §2

[3] = system: A375-A2-ESO-FG human melanoma cells
Procedure: The A375-A2-ESO-FG human melanoma cells (10×10^6 cells per animal) were s.c. injected into NSG mice to form solid tumors. In some experiments, mice received phenelzine treatment through i.p. injection (30 mg/kg/day). In some experiments, mice received adoptive transfer of ESO-T cells through r.o. injection (4×10^6 cells per recipient mouse). Prior to ESO-T cell adoptive transfer, recipient mice were preconditioned with total body irradiation (100 rads). During an experiment, tumor growth was monitored twice per week by measuring tumor size using a Fisherbrand™ Traceable™ digital caliper; tumor volumes were calculated by formula ½×L×W^2.

[4] = system: tumor-infiltrating CD8 T cells; conditions: B16-OVA, day 17, phenelzine vs NT, FACS
Procedure: as §1

Maoa-WT CD8 T cells = conditions: 24-hour post anti-CD3 stimulation, phenelzine 10 μM vs NT, ELISA
Procedure: Spleen and lymph node cells were harvested from Maoa-KO or Maoa-WT (B6 wildtype) mice and subjected to MACS using a Mouse CD8 T Cell Isolation Kit (Cat #120117044, Miltenyi Biotec) following the manufacturer's instructions. Purified mouse CD8 T cells were cultured in vitro in C10 medium, in a 24-well plate at 0.5×10^6 cells per ml medium per well, in the presence of plate-bound anti-mouse CD3ε (5 μg/ml) for up to 4 days. At indicated time points, cells were collected for flow cytometry analysis of surface marker expression and intracellular effector molecule production, and for QPCR analysis of mRNA expression; cell culture supernatants were collected for ELISA analysis of effector cytokine production. In experiments studying serotonin signaling, cells were cultured in C10 medium made of serotonin-depleted FBS that was pretreated overnight with charcoal-dextran (Cat #C6241, Sigma; 1 gram per 50 ml FBS). L-Ascorbic acid (Cat #A4403, Sigma; 100 μM) was added to C10 medium to stabilize T cell-produced or supplemented serotonin. […] In some experiments, cells were supplemented with exogenous serotonin (SER, 10 μM) to stimulate serotonin signaling. In some experiments, cells were treated with serotonin receptor antagonist asenapine (ASE, 10 μM) to block serotonin receptor signaling. […] The absorbance at 450 nm was measured using an Infinite M1000 microplate reader (Tecan).

[5] = B6 wildtype mice, combination study with anti-PD-1 (Iso, Phe+Iso, αPD-1, Phe+αPD-1)

**Q.** Which “IL-2 and IFN-γ production difference between Maoa-WT and Maoa-KO CD8 T cells” value (CD8 T cells; day 2 post anti-CD3 stimulation, asenapine 10 μM, ELISA) does the source give for CN1CC2c3ccccc3Oc3ccc(Cl)cc3C2C1 (stereo not drawn) [asenapine] here?
**A.** eliminated the cytokine production difference between Maoa-WT and Maoa-KO CD8 T cells

**Q.** And the “Enhancement of MAPK signaling (ERK phosphorylation) and TCR downstream signaling (NFAT, NF-κB, c-Jun) in Maoa-KO T cells” value (5-HTRs on CD8 T cells)?
**A.** largely abrogated

**Q.** With C#CCN(C)CCCOc1ccc(Cl)cc1Cl [clorgyline] as the compound, how does the “Tumor growth, B16-OVA melanoma prevention model” value (B16-OVA melanoma [1]; B6 wildtype mice) read?
**A.** dramatically suppressed tumor growth

**Q.** What about the “CD8 T cell hyperactivation (expression of CD25, Granzyme B, IL-2, IFN-γ)” value (“CD8 T cell hyperactivation” below) (CD8 T cells) of the same compound?
**A.** efficiently induced CD8 T cell hyperactivation

**Q.** How did the “Tumor growth, B16-OVA melanoma prevention model” value (B16-OVA melanoma [1]; B6 wildtype mice) turn out when O=C(NCCN1CCOCC1)c1ccc(Cl)cc1 [mocolobemide, moclobemide] was run?
**A.** dramatically suppressed tumor growth

**Q.** And the “CD8 T cell hyperactivation” value (CD8 T cells)?
**A.** efficiently induced CD8 T cell hyperactivation

**Q.** Which B16-OVA tumor growth (B16-OVA melanoma [1]; [5]) does the source give for NNCCc1ccccc1 [phenelzine] here?
**A.** significantly suppressed tumor growth at a level comparable to the anti-PD-1 treatment

**Q.** What about the “Tumor growth, B16-OVA melanoma prevention model” value (B16-OVA melanoma [1]; B6 wildtype mice) of the same compound?
**A.** dramatically suppressed tumor growth

**Q.** What about the “Tumor progression, pre-established B16-OVA melanoma solid tumors” value (B16-OVA melanoma [1]; B6 wildtype mice, phenelzine vs NT) of the same compound?
**A.** effectively suppressed tumor progression

**Q.** And the “B16-OVA tumor growth in immunodeficient NSG mice” value (B16-OVA melanoma [1]; NSG mice, phenelzine vs NT)?
**A.** did not suppress the growth

**Q.** And the “Tumor suppression with CD8 T cells depleted” value (B16-OVA melanoma [1]; tumor-bearing B6 wildtype mice, phenelzine + anti-CD8)?
**A.** no tumor suppression was observed

**Q.** And the “Phenelzine treatment-induced accumulation of serotonin in the tumor after depletion of CD8 T cells” value (B16-OVA melanoma [2]; anti-CD8 antibody depletion, day 14, HPLC)?
**A.** largely abolished

**Q.** And the Serum serotonin levels (B16-OVA melanoma [2]; day 14, with or without phenelzine and anti-CD8, HPLC)?
**A.** no significant changes in serotonin levels in serum

**Q.** And the Intratumoral serotonin levels (B16-OVA melanoma [2]; day 14 post tumor challenge, phenelzine vs NT, HPLC)?
**A.** increased levels of serotonin

**Q.** What about the MC38 tumor growth (MC38 colon cancer; [5]) of the same compound?
**A.** completely suppressed tumor growth as effectively as the anti-PD-1 treatment

**Q.** What about the “MC38 tumor growth in immunodeficient NSG mice” value (MC38 colon cancer; NSG mice, phenelzine vs NT) of the same compound?
**A.** did not suppress the growth

**Q.** What about the “CD8 T cell hyperactivation” value (CD8 T cells) of the same compound?
**A.** efficiently induced CD8 T cell hyperactivation

**Q.** And the “IL-2 and IFN-γ production” value (CD8 T cells; ELISA)?
**A.** increased production of the effector cytokines IL-2 and IFN-γ

**Q.** And the “A375-A2-ESO-FG tumor growth without ESO-T cell adoptive transfer” value ([3]; NSG mice without ESO-T cells, phenelzine vs NT)?
**A.** no tumor suppression was observed

**Q.** And the “A375-A2-ESO-FG tumor growth with ESO-T cell adoptive transfer” value ([3]; NSG mice, ESO-T cells, phenelzine i.p. 30 mg/kg/day vs NT)?
**A.** effectively suppressed tumor growth

**Q.** What about the “Expression of exhaustion markers (PD-1) on tumor-infiltrating CD8 T cells” value [4] of the same compound?
**A.** reduced expression of exhaustion markers

**Q.** What about the “Production of effector molecules (IFN-γ and Granzyme B) by tumor-infiltrating CD8 T cells” value [4] of the same compound?
**A.** enhanced production of effector molecules

**Q.** What about the “Serotonin levels in CD8 T cell cultures” value (Maoa-WT CD8 T cells) of the same compound?
**A.** recapitulated the serotonin overproduction phenotype of Maoa-KO CD8 T cells

**Q.** Which “IL-2 and IFN-γ production” value (CD8 T cells; ELISA) does the source give for NCCc1c[nH]c2ccc(O)cc12 [serotonin] here?
**A.** T cell hyperactivation and elevated production of IL-2 and IFN-γ
